From patent publication US8702684B2, “Therapeutic hybrid implantable devices” (University of Miami, priority 2007, dated 2014)
Entries after “also recorded” stand apart in the source; their conditions may differ.

Tests used:
Assay type in all cases: in vivo, rat
[1] = test system: islet allografts in diabetic Lewis rats; assay: Allogeneic islet graft survival in hybrid devices with local immunosuppression via micro-osmotic pump after weaning of systemic immunosuppression; details: local delivery by micro-osmotic pump 0.25 microL/h, dexamethasone phosphate 20 mg/L, loteprednol etabonate 0.2, 0.5, 10 mg/L, S1P receptor agonist 50 mg/L, controls rejected within 2 weeks of stopping systemic immunosuppression
Excerpt: Forty days before islet transplantation, the rats were implanted with a hybrid device of the invention with a plunger-containing device in the subcutaneous space as described in Example 3. Allogeneic islets (7,000 IE isolated from Wistar Furth rats) were then deposited into the neovascularized spaces of the hybrid devices, and after the transplantation, the animals' glucose levels were monitored daily as described in Examples 1 and 3. Post-transplantation, all animals received systemic immunosuppression treatment consisting of a single-dose induction treatment with T-cell depleting anti-lymphocyte serum (ALS) given intravenously on day −3. Starting on the day of islet transplantation, systemic maintenance immunosuppression with mycophenolic acid (MPA, 20 mg/kg) was given daily orally for at least three weeks. […] After at least two weeks of treatment, systemic immunosuppression was tapered and discontinued, while the local immunosuppression was maintained. For example, a typical weaning protocol of systemic treatment consisted of 25% reduction of MPA for two consecutive days over an 8-day period. FIG. 25 illustrates an experimental protocol of transient systemic immunosuppression combined with local extended immunotherapy.
Starting on the day of islet transplantation, animals also received local immunosuppression delivered using a micro-osmotic pump such as the Alzet® 100 microL volume, 2-week continuous infusion, 0.25 microL/h delivery rate model 1002 pump (Durect Corp., Cupertino, Calif.). Both the device and the pump were implanted in the dorsal region of the rodents, and they were connected via a PE tubing. Animals were divided into controls receiving either local saline or no treatment and treatment groups receiving various immunosuppressive agents such as, for example, dexamethasone phosphate (20 mg/L), loteprednol etabonate (0.2, 0.5, and 10 mg/L), or a sphingosine-1-phosphate (S1P) receptor agonist (50 mg/L) from the micro-osmotic pump.

[2] = test system: syngeneic islet grafts in chemically-diabetic Lewis rats; assay: Effect of systemic immunosuppression given from day of syngeneic islet transplantation on engraftment and graft function in hybrid devices; details: for animals achieving normoglycemia at later times after withdrawal of immunosuppression: fraction of animals in group, single-drug treatment; for graft function while under treatment: syngeneic islets 3,000 IEQ, treatment from day of transplantation for 40 days, controls normoglycemic long-term
Procedure: To assess the impact of conventional systemic immunosuppression on islet engraftment and function in prevascularized hybrid devices, we carried out syngeneic islet transplantation in chemically-diabetic Lewis rats that were treated with either rapamycin or tacrolimus (alone or in combination) as described in Example 3, starting from the day of islet transplantation, for 40 days. Control animals received no treatment.

[3] = test system: already-engrafted syngeneic islet grafts in rats; assay: Effect of systemic immunosuppression on already-engrafted functional syngeneic islet grafts; details: for animals returning to normoglycemia / recovering function after drug withdrawal: after 40 days treatment

Row | animals achieving normoglycemia at later times after withdrawal of immunosuppression [2] | animals returning to normoglycemia / recovering function after drug withdrawal ([3]; already-engrafted graft) | animals displaying dysfunction while under treatment ([3]; fraction of animals, 40 days treatment of already-engrafted graft) | graft function under systemic immunosuppression administered for 40 days ([3]; already-engrafted graft, >=40 days post implantation) | Structure (SMILES) | allograft survival compared to control animals [1] | allograft survival compared to control animals ([1]; listed as dexametasone phosphate) | graft function while under treatment [2]
1 | – | – | – | – | C[C@@H]1C[C@H]2[C@@H]3CCC4=CC(=O)C=C[C@]4(C)[C@@]3(F)[C@@H](O)C[C@]2(C)[C@@]1(O)C(=O)COP(=O)(O)O [dexamethasone phosphate] | clear extension of allograft survival | sizable extension of allograft survival | –
2 | – | – | – | – | CCOC(=O)O[C@]1(C(=O)OCCl)CC[C@H]2[C@@H]3CCC4=CC(=O)C=C[C@]4(C)[C@H]3[C@@H](O)C[C@@]21C [loteprednol etabonate] | clear extension of allograft survival; also recorded: sizable extension of allograft survival | – | –
3 | ¼ | returned to normoglycemia | ⅓ | – | CO[C@H]1C[C@@H]2CC[C@@H](C)[C@@](O)(O2)C(=O)C(=O)N2CCCC[C@H]2C(=O)O[C@H]([C@H](C)C[C@@H]2CC[C@@H](O)[C@H](OC)C2)CC(=O)[C@H](C)/C=C(\C)[C@@H](O)[C@@H](OC)C(=O)[C@H](C)C[C@H](C)/C=C/C=C/C=C/1C [rapamycin, sirolimus] | – | – | only partial function or primary non-function; also recorded: only partial or primary non-function
4 | ¼ | ⅓ | – | impaired graft function | C=CC[C@@H]1/C=C(\C)C[C@H](C)C[C@H](OC)[C@H]2O[C@@](O)(C(=O)C(=O)N3CCCC[C@H]3C(=O)O[C@H](/C(C)=C/[C@@H]3CC[C@@H](O)[C@H](OC)C3)[C@H](C)[C@@H](O)CC1=O)[C@H](C)C[C@@H]2OC [tacrolimus] | – | – | only partial function or primary non-function; also recorded: only partial or primary non-function
